The values below come from patent publication US20240368181A1, “QUINOXALINE DERIVATIVES AND USES THEREOF” (Black Diamond Therapeutics, Inc., priority 2021, published 2024).

One may read the IC50 as the concentration that gives 50% inhibition. Read a low IC50 as greater potency in that assay.

Format in all cases: cell-based
Assay [1] deals with RT-112 (FGFR3-Tacc3 fusion) cells. The assay is described as follows: cell proliferation assay (CellTiterGlo), RT-112 cells. The following applies: Homo sapiens, RT-112, RT112 cells, 72 hours. The method in brief:
(§1)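 Cells were suspended, dispensed into plates and incubated with vehicle (DMSO) or test compound at varying concentrations. Growth inhibition was measured by luminescent quantification of intracellular ATP (CellTiterGlo). IC50 values came from growth normalized to vehicle-treated cells taken as viable.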

In assay [2] the test system is SNU-16 (FGFR2-amplification) cells. The assay is described as follows: cell proliferation assay (CellTiterGlo), SNU-16 cells. The following applies: Homo sapiens, 72 hours. The method in brief: as §1
In general terms: ATP-based viability assays read luminescence as a measure of living cells.

Assay [3] deals with DMS-114 (FGFR1 overexpression) cells. Put plainly: cell proliferation assay (CellTiterGlo), DMS-114 cells. The method in brief:
as §1

Assay [4] deals with UM-UC-14 (FGFR3-S249C) cells. The assay is described as follows: cell proliferation assay (CellTiterGlo), UM-UC-14 cells. The following applies: UMUC14, 72 h. The method in brief: as §1

As to `Cc1nc2ccc(Oc3ccc4ncc(-c5cnn(C6C7CCC6CNC7)c5)nc4c3Cl)cc2[nH]1` (stereo not drawn) [Compound 223], the concentration for half-maximal inhibition (IC50) in assay [1] is 20 to 100 nM; in assay [2] it was 20 to 100 nM; in assay [3] (Homo sapiens, DMS-114, 72 h), 100 to 400 nM; in assay [4] it was 20 to 100 nM.
Consider `Cc1nc2ccc(Oc3ccc4ncc(-c5cnn(CC6CCNS(=O)(=O)C6)c5)nc4c3Cl)cc2[nH]1` (stereo not drawn) [Compound 192], for which the half-maximal inhibitory concentration (IC50) is 20 to 100 nM in assay [1]; 20 to 100 nM in assay [2]; no less than 400 nM in assay [3] (Homo sapiens, DMS-114, 72 h); 20 to 100 nM in assay [4].
Take `Cc1nc2ccc(Oc3ccc4ncc(-c5cnn(CC6CC(F)(F)C6)c5)nc4c3C3=CCCOC3)cc2[nH]1` [Compound 91]: the IC50 was 20 to 100 nM in assay [1]; 20 to 100 nM in assay [2]; no less than 400 nM in assay [3] (Homo sapiens, DMS-114, 72 h); 20 to 100 nM in assay [4].
Regarding `Cc1nc2ccc(Oc3ccc4ncc(-c5cnn(CC6CC(F)(F)C6)c5)nc4c3-n3ccnc3)cc2[nH]1` [Compound 69], the IC50 in assay [1] was 100 to 400 nM; in assay [2], 100 to 400 nM; in assay [3] (Homo sapiens, DMS-114, 72 h), no less than 400 nM; in assay [4], 100 to 400 nM.
As for `Cc1nc2ccc(Oc3ccc4ncc(-c5cnn(C(C)(C)C(=O)C6CC[C@H](F)C6)c5)nc4c3Cl)cc2[nH]1` (stereo partly drawn) [Compound 195], the half-maximal inhibitory concentration (IC50) in assay [1] was 20 to 100 nM; in assay [2], 20 to 100 nM; in assay [3] (Homo sapiens, DMS-114, 72 h), no less than 400 nM; in assay [4] it was 20 to 100 nM.
With `Cc1nc2ccc(Oc3ccc4ncc(-c5cnn(C6CCN(CCO)CC6)c5)nc4c3Cl)cc2[nH]1` [Compound 301], the concentration for half-maximal inhibition (IC50) is less than 20 nM in assay [1]; less than 20 nM in assay [2]; no less than 400 nM in assay [3] (Homo sapiens, DMS-114, 72 h); 20 to 100 nM in assay [4].
Take `Cc1nc2ccc(Oc3ccc4ncc(-c5cnn([C@H]6CC7(C[C@@H](O)C7)C6)c5)nc4c3Cl)cc2[nH]1` (stereo partly drawn) [Compound 123]: the IC50 is 20 to 100 nM in assay [1], 20 to 100 nM in assay [2], 100 to 400 nM in assay [3] (72 hours) and less than 20 nM in assay [4].
On to `Cc1nc2ccc(Oc3ccc4ncc(-c5cnn(CC6CCC(=O)CC6)c5)nc4c3Cl)cc2[nH]1` [Compound 327], for which the half-maximal inhibitory concentration (IC50) is less than 20 nM in assay [1]; less than 20 nM in assay [2]; no less than 400 nM in assay [3] (Homo sapiens, DMS-114, 72 h); less than 20 nM in assay [4].
Turning to `Cc1nc2ccc(Oc3ccc4ncc(-c5cnn(C6CCC(F)(F)CC6)c5)nc4c3Cl)c(F)c2[nH]1` [Compound 153], the IC50 was in the range of 20 to 100 nM in assay [1]; 20 to 100 nM in assay [2]; 100 to 400 nM in assay [3] (Homo sapiens, DMS-114, 72 h); 20 to 100 nM in assay [4].
Regarding `Cc1nc2ccc(Oc3ccc4ncc(-c5cnn(CC(=O)N6CC(O)C6)c5)nc4c3Cl)cc2[nH]1` [Compound 317], the IC50 is 100 to 400 nM in assay [1]; 20 to 100 nM in assay [2]; no less than 400 nM in assay [3] (Homo sapiens, DMS-114, 72 h); no less than 400 nM in assay [4].
Take `Cc1nc2ccc(Oc3ccc4ncc(-c5cnn(CC6CC(F)(F)C6)c5)nc4c3C3=CC(C)(C)OC3(C)C)c(F)c2[nH]1` [Compound 88]: the IC50 lay in the range of 20 to 100 nM in assay [1]; 20 to 100 nM in assay [2]; 100 to 400 nM in assay [3] (Homo sapiens, DMS-114, 72 h); 20 to 100 nM in assay [4].
For `Cc1nc2ccc(Oc3ccc4ncc(-c5cnn(C6CN(c7cccc(N(C)C)n7)C6)c5)nc4c3Cl)cc2[nH]1` [Compound 190], the 50% inhibitory concentration (IC50) in assay [1] was no less than 400 nM; in assay [2], no less than 400 nM; in assay [3] (Homo sapiens, DMS-114, 72 h), no less than 400 nM; in assay [4], no less than 400 nM.
As to `Cc1nc2ccc(Oc3ccc4ncc(-c5cnn(CC6CC(F)(F)C6)c5)nc4c3C3=CCOCC3)cc2[nH]1` [Compound 100], the IC50 in assay [1] is less than 20 nM; in assay [2] it was 20 to 100 nM; in assay [3] (Homo sapiens, DMS-114, 72 h), 100 to 400 nM; in assay [4] it was 20 to 100 nM.
As to `Cc1nc2ccc(Oc3c(C)cc4ncc(-c5cnn(CC6CCN(C)CC6)c5)nc4c3Cl)cc2[nH]1` [Compound 334], the IC50 in assay [1] was no less than 400 nM; in assay [2] it was no less than 400 nM; in assay [3] (Homo sapiens, DMS-114, 72 h), no less than 400 nM; in assay [4] it was no less than 400 nM.
In the case of `FC1(F)CC(Cn2cc(-c3cnc4ccc(Oc5ccc6[nH]c(C(F)(F)F)nc6c5)c(Cl)c4n3)cn2)C1` [Compound 224], the IC50 was no less than 400 nM in assay [1]; no less than 400 nM in assay [2]; no less than 400 nM in assay [3] (Homo sapiens, DMS-114, 72 h); no less than 400 nM in assay [4].
For `COC1(Cn2cc(-c3cnc4ccc(Oc5ccc6nc(C)[nH]c6c5)c(Cl)c4n3)cn2)CC1` [Compound 110], the IC50 in assay [1] was 20 to 100 nM; in assay [2] it was 20 to 100 nM; in assay [3] (Homo sapiens, DMS-114, 72 h) it was no less than 400 nM; in assay [4], 20 to 100 nM.
As to `Cc1nc2ccc(Oc3ccc4ncc(-c5cnn(CC(=O)N6C[C@@H](C)O[C@@H](C)C6)c5)nc4c3Cl)cc2[nH]1` [Compound 193], the IC50 was 20 to 100 nM in assay [1]; 100 to 400 nM in assay [2]; no less than 400 nM in assay [3] (Homo sapiens, DMS-114, 72 h); 100 to 400 nM in assay [4].
Regarding `Cc1nc2ccc(Oc3ccc4ncc(-c5cnn(C6CCC(F)(F)CC6)c5)nc4c3Cl)cc2[nH]1` [Compound 358], the concentration for half-maximal inhibition (IC50) in assay [1] is 100 to 400 nM; in assay [2], 20 to 100 nM; in assay [3] (Homo sapiens, DMS-114, 72 h), no less than 400 nM; in assay [4] it was 100 to 400 nM.
`Cc1nc2ccc(Oc3ccc4ncc(-c5cnn(CCC6C=CCO6)c5)nc4c3Cl)cc2[nH]1` (stereo not drawn) [Compound 376]: the IC50 in assay [1] was 20 to 100 nM; in assay [2], 20 to 100 nM; in assay [3] (Homo sapiens, DMS-114, 72 h), no less than 400 nM; in assay [4] it was 20 to 100 nM.
Turning to `Cc1nc2ccc(Oc3ccc4ncc(-c5cnn(CC(C)(C)C(N)=O)c5)nc4c3Cl)cc2[nH]1` [Compound 274], the half-maximal inhibitory concentration (IC50) in assay [1] is 20 to 100 nM; in assay [2], 20 to 100 nM; in assay [3] (Homo sapiens, DMS-114, 72 h) it was no less than 400 nM; in assay [4], 20 to 100 nM.
On to `COC1CC(Cn2cc(-c3cnc4ccc(Oc5ccc6nc(C)[nH]c6c5)c(Cl)c4n3)cn2)C1` (stereo not drawn) [Compound 281], for which the IC50 is 20 to 100 nM in assay [1]; 20 to 100 nM in assay [2]; no less than 400 nM in assay [3] (Homo sapiens, DMS-114, 72 h); 20 to 100 nM in assay [4].
On to `Cc1nc2ccc(Oc3ccc4ncc(-c5cnn([C@H]6C[C@@H](N7C[C@@H]8C[C@H]7CO8)C6)c5)nc4c3Cl)cc2[nH]1` [Compound 204], for which the IC50 in assay [1] is 20 to 100 nM; in assay [2], 20 to 100 nM; in assay [3] (Homo sapiens, DMS-114, 72 h) it was no less than 400 nM; in assay [4], 20 to 100 nM.
Consider `Cc1nc2ccc(Oc3ccc4ncc(-c5cnn(C6CC(=O)C6)c5)nc4c3Cl)cc2[nH]1` [Compound 242], for which the IC50 is 20 to 100 nM in assay [1]; 20 to 100 nM in assay [2]; no less than 400 nM in assay [3] (Homo sapiens, DMS-114, 72 h); 20 to 100 nM in assay [4].
Take `Cc1nc2ccc(Oc3ccc4ncc(-c5cnn(CC6CC(F)(F)C6)c5)nc4c3C3=CCN(C(=O)OC(C)(C)C)C3)cc2[nH]1` [Compound 84]: the IC50 in assay [1] was 100 to 400 nM; in assay [2], 100 to 400 nM; in assay [3] (Homo sapiens, DMS-114, 72 h), no less than 400 nM; in assay [4] it was no less than 400 nM.
Turning to `Cc1nc2ccc(Oc3ccc4ncc(-c5cnn(C(C)(C)CO)c5)nc4c3Cl)cc2[nH]1` [Compound 359], the 50% inhibitory concentration (IC50) in assay [1] was 20 to 100 nM; in assay [2], 20 to 100 nM; in assay [3] (Homo sapiens, DMS-114, 72 h), no less than 400 nM; in assay [4], 20 to 100 nM.
Turning to `Cc1nc2ccc(Oc3ccc4ncc(-c5cnn(C6CCN(c7ccccn7)CC6)c5)nc4c3Cl)cc2[nH]1` [Compound 194], the IC50 was 100 to 400 nM in assay [1]; 100 to 400 nM in assay [2]; no less than 400 nM in assay [3] (Homo sapiens, DMS-114, 72 h); 100 to 400 nM in assay [4].
As for `Cc1nc2ccc(Oc3ccc4ncc(-c5cnn(C6CN(CC#N)C6)c5)nc4c3Cl)cc2[nH]1` [Compound 254], the IC50 is 20 to 100 nM in assay [1]; 20 to 100 nM in assay [2]; no less than 400 nM in assay [3] (Homo sapiens, DMS-114, 72 h); 20 to 100 nM in assay [4].
